EPA's ToxRefDB 2

Columns and labels:
rat [1] = conditions: Prenatal developmental toxicity study, sprague dawley, Oral, Gavage/Intubation, dose end: 15 GD
rat [2] = conditions: Prenatal developmental toxicity study; sprague dawley; Oral; Gavage/Intubation; dose end: 15 GD; group: maternal; systemic / in life observation / clinical signs / post-dosing rooting in bedding + systemic / in life observation / food consumption / food …
rat [3] = conditions: Carcinogenicity, wistar, Oral, Feed, dose end: 24 month, group: systemic
rabbit = conditions: Prenatal developmental toxicity study, himalayan, Oral, Gavage/Intubation, dose end: 28 GD
mouse [4] = conditions: Carcinogenicity, other, Oral, Feed, dose end: 18 month, group: systemic
rat [5] = conditions: Multigenerational reproductive toxicity study, wistar, Oral, Feed, dose end: 2 generation
dog [6] = conditions: Chronic toxicity, beagle, Oral, Feed, dose end: 52 week, group: systemic
dog [7] = conditions: Subchronic oral toxicity in nonrodent, beagle, Feed, dose end: 90 day, group: systemic
rat [8] = conditions: Subchronic oral toxicity in rodents, wistar, Feed, dose end: 90 day, group: systemic, systemic / organ weight / thyroid gland / absolute + systemic / organ weight / thyroid gland / relative to body weight + systemic / …
rat [9] = conditions: Chronic toxicity, wistar, Oral, Feed, dose end: 104 week, group: systemic
mouse [10] = conditions: Subchronic oral toxicity in rodents, other, Feed, dose end: 90 day, group: systemic
rat [11] = conditions: Subchronic oral toxicity in rodents, sprague dawley, Gavage/Intubation, dose end: 92 day, group: systemic, systemic / pathology microscopic / stomach / thickened
rat [12] = conditions: Subchronic oral toxicity in rodents, sprague dawley, Feed, dose end: 13 week, group: systemic
dog [13] = conditions: Subchronic oral toxicity in nonrodent, beagle, Feed, dose end: 90 day, group: systemic; remark: listed apart in the source
rat [14] = conditions: Subchronic oral toxicity in rodents, sprague dawley, Gavage/Intubation, dose end: 90 day, group: systemic, systemic / pathology microscopic / stomach / hyperkeratosis + systemic / pathology microscopic / stomach / hyperplasia
rat [15] = conditions: Prenatal developmental toxicity study, sprague dawley, Oral, Gavage/Intubation, dose end: 16 GD
primate [16] = conditions: Sub-acute repeat dose toxicity, Oral, Gavage/Intubation, dose end: 14 day, group: systemic
rat [17] = conditions: Sub-acute repeat dose toxicity, Oral, Gavage/Intubation, dose end: 7 day, group: systemic
primate [18] = conditions: Sub-acute repeat dose toxicity, Oral, Gavage/Intubation, dose end: 7 day, group: systemic
rat [19] = conditions: Sub-acute repeat dose toxicity, sprague dawley, Oral, Gavage/Intubation, dose end: 14 day, group: systemic
[20] = group: developmental, developmental / developmental malformation / bone / [other]
[21] = group: maternal, systemic / in life observation / body weight / body weight + systemic / in life observation / clinical signs / [other] + systemic / in life …
[22] = group: developmental, developmental / developmental malformation / bone / incomplete ossification
[23] = group: maternal, reproductive / reproductive performance / aborted / aborted + reproductive / reproductive performance / premature delivery / premature …
[24] = systemic / in life observation / body weight / body weight
[25] = systemic / in life observation / body weight / body weight + systemic / organ weight / liver / absolute + systemic / organ weight / liver / …
[26] = group: offspring, systemic / in life observation / body weight / offspring (pup) weight + systemic / in life observation / body weight / offspring (pup) …
[27] = group: offspring, systemic / organ weight / thymus / absolute
[28] = group: parental, systemic / pathology microscopic / liver / degeneration + systemic / pathology microscopic / liver / hypertrophy
[29] = group: reproductive, reproductive / reproductive performance / implantations / implantations
[30] = systemic / clinical chemistry / alkaline phosphatase (alp/alk) / alkaline phosphatase (alp/alk) + systemic / organ weight / liver / absolute…
[31] = systemic / hematology / blood clotting / blood clotting - prothrombin time
[32] = systemic / clinical chemistry / alanine aminotransferase (alt/sgpt) / alanine aminotransferase (alt/sgpt) + systemic / clinical chemistry / …
[33] = systemic / organ weight / thyroid gland / absolute + systemic / pathology microscopic / thyroid gland / hyperplasia + systemic / pathology …
[34] = systemic / organ weight / liver / absolute
[35] = systemic / organ weight / liver / absolute + systemic / organ weight / liver / relative to body weight + systemic / pathology microscopic / …
[36] = systemic / in life observation / body weight / body weight + systemic / in life observation / food consumption / food efficiency + systemic…
[37] = systemic / in life observation / body weight / body weight + systemic / in life observation / food consumption / food consumption + systemic…
[38] = group: developmental, developmental / developmental malformation / bone / incomplete ossification + developmental / developmental malformation / bone / unossified…
[39] = group: maternal, systemic / in life observation / body weight / body weight gain + systemic / in life observation / food consumption / food consumption + …
[40] = systemic / in life observation / body weight / body weight + systemic / clinical chemistry / chloride / chloride + systemic / clinical …
[41] = systemic / in life observation / mortality / mortality + systemic / pathology microscopic / stomach / degeneration + systemic / clinical …
[42] = systemic / clinical chemistry / phosphorus / phosphorus + systemic / clinical chemistry / sodium / sodium + systemic / clinical chemistry / …
[43] = systemic / pathology microscopic / vagina / prolapse + systemic / in life observation / clinical signs / vomitting + systemic / in life …
[44] = systemic / clinical chemistry / albumin / albumin + systemic / clinical chemistry / globulins / globulins + systemic / pathology microscopic…

## CSc1nc(NC2CC2)nc(NC(C)(C)C)n1 [Cybutryne]
Rat [1]; [20]
  LEL: 300 mg/kg/day
  LOAEL: > 300 mg/kg/day
  NEL: 150 mg/kg/day
  NOAEL: ≥ 300 mg/kg/day
Rat [1]; group: maternal, systemic / in life observation / body weight / body weight + systemic / in life observation / body weight / body weight gain
  LOAEL: 300 mg/kg/day
Rat [1]; group: maternal, systemic / in life observation / body weight / body weight + systemic / in life observation / clinical signs / [other]
  LEL: 150 mg/kg/day
Rat [1]; [21]
  NEL: 50 mg/kg/day
  NOAEL: 150 mg/kg/day
Rat [2]
  LEL: 150 mg/kg/day
  LOAEL: 150 mg/kg/day
  NEL: 50 mg/kg/day
  NOAEL: 50 mg/kg/day

## O=C(Nc1ccccc1-c1ccc(Cl)cc1)c1cccnc1Cl [Boscalid]
Rat [3]; systemic / in life observation / mortality / mortality + systemic / in life observation / body weight / body weight + systemic / in life …
  NEL: 1020 mg/kg/day
Rat [3]; systemic / pathology microscopic / thyroid gland / hyperplasia + systemic / pathology microscopic / thyroid gland / hypertrophy
  LOAEL: 116 mg/kg/day
Rat [3]; systemic / pathology microscopic / thyroid gland / hyperplasia + systemic / pathology microscopic / thyroid gland / hypertrophy + systemic…
  NOAEL: 23 mg/kg/day
rabbit; [22]
  LEL: 1000 mg/kg/day
  LOAEL: > 1000 mg/kg/day
  NEL: 300 mg/kg/day
  NOAEL: ≥ 1000 mg/kg/day
rabbit; [23]
  LEL: 1000 mg/kg/day
  LOAEL: 1000 mg/kg/day
  NEL: 300 mg/kg/day
  NOAEL: 300 mg/kg/day
Mouse [4]; [24]
  LOAEL: 331 mg/kg/day
Mouse [4]; [25]
  NEL: 13 mg/kg/day
  NOAEL: 65 mg/kg/day
Mouse [4]; systemic / in life observation / body weight / body weight + systemic / organ weight / liver / relative to body weight
  LEL: 65 mg/kg/day
Rat [5]; [26]
  LOAEL: 124 mg/kg/day
  NOAEL: 12.3 mg/kg/day
Rat [5]; [27]
  LEL: 12.3 mg/kg/day
  NEL: < 12.3 mg/kg/day
Rat [5]; group: parental, systemic / pathology microscopic / liver / degeneration
  LOAEL: 1030 mg/kg/day
Rat [5]; [28]
  NEL: 10.1 mg/kg/day
  NOAEL: 101 mg/kg/day
Rat [5]; group: parental, systemic / pathology microscopic / liver / hypertrophy
  LEL: 101 mg/kg/day
Rat [5]; [29]
  LEL: 10.7 mg/kg/day
  LOAEL: > 1060 mg/kg/day
  NEL: < 10.7 mg/kg/day
  NOAEL: ≥ 1060 mg/kg/day
Dog [6]; systemic / clinical chemistry / alkaline phosphatase (alp/alk) / alkaline phosphatase (alp/alk) + systemic / organ weight / liver / absolute
  LOAEL: 57.4 mg/kg/day
Dog [6]; [30]
  LEL: 57.4 mg/kg/day
  NEL: 21.8 mg/kg/day
  NOAEL: 21.8 mg/kg/day
Dog [7]; [30]
  LOAEL: 78.1 mg/kg/day
  NOAEL: 7.6 mg/kg/day
Dog [7]; [31]
  LEL: 8.1 mg/kg/day
  NEL: < 8.1 mg/kg/day
Rat [8]
  LEL: 137 mg/kg/day
  LOAEL: 137 mg/kg/day
  NEL: 34 mg/kg/day
  NOAEL: 34 mg/kg/day
Rat [9]; [32]
  LEL: 5.9 mg/kg/day
  NEL: < 5.9 mg/kg/day
Rat [9]; [33]
  LOAEL: 110 mg/kg/day
  NOAEL: 21.9 mg/kg/day
Mouse [10]; [34]
  LEL: 42 mg/kg/day
  NEL: < 42 mg/kg/day
Mouse [10]; [35]
  LOAEL: 788 mg/kg/day
  NOAEL: 197 mg/kg/day

## O=c1[nH]sc2ccccc12 [1,2-Benzisothiazolin-3-one]
Rat [11]
  LEL: 10 mg/kg/day
  LOAEL: 10 mg/kg/day
  NEL: < 10 mg/kg/day
  NOAEL: < 10 mg/kg/day
Rat [12]; [24]
  LEL: 69 mg/kg/day
  LOAEL: 69 mg/kg/day
Rat [12]; [36]
  NEL: 15.3 mg/kg/day
  NOAEL: 15.3 mg/kg/day
Dog [13]; systemic / in life observation / body weight / body weight + systemic / in life observation / food consumption / food consumption
  LOAEL: 89 mg/kg/day
Dog [13]; [37]
  LEL: 89 mg/kg/day
  NEL: 38 mg/kg/day
  NOAEL: 38 mg/kg/day
Rat [14]
  LEL: 10 mg/kg/day
  LOAEL: > 10 mg/kg/day
  NOAEL: ≥ 10 mg/kg/day
Rat [15]; [38]
  LOAEL: 100 mg/kg/day
  NEL: 10 mg/kg/day
  NOAEL: 40 mg/kg/day
Rat [15]; group: developmental, developmental / developmental malformation / bone / unossified
  LEL: 40 mg/kg/day
Rat [15]; group: maternal, systemic / in life observation / body weight / body weight gain + systemic / in life observation / food consumption / food consumption
  LOAEL: 100 mg/kg/day
Rat [15]; [39]
  NEL: 10 mg/kg/day
  NOAEL: 40 mg/kg/day
Rat [15]; group: maternal, systemic / in life observation / clinical signs / abnormal respiratory sounds
  LEL: 40 mg/kg/day

## CCn1nc(C)c2c1C(=O)NCC(c1ccc(O)cc1)=N2
Primate [16]; [24]
  LEL: 5 mg/kg/day
  NEL: < 5 mg/kg/day
Primate [16]; [40]
  LOAEL: > 20 mg/kg/day
  NOAEL: ≥ 20 mg/kg/day
Rat [17]; [41]
  LOAEL: > 300 mg/kg/day
  NOAEL: ≥ 300 mg/kg/day
Rat [17]; systemic / pathology microscopic / heart / fibrosis + systemic / pathology microscopic / heart / hemorrhage + systemic / pathology …
  LEL: 80 mg/kg/day
Primate [18]; [42]
  LOAEL: > 50 mg/kg/day
  NOAEL: ≥ 50 mg/kg/day
Primate [18]; [43]
  LEL: 10 mg/kg/day
  NEL: < 10 mg/kg/day
Rat [19]; [44]
  LOAEL: > 80 mg/kg/day
  NOAEL: ≥ 80 mg/kg/day
Rat [19]; systemic / organ weight / testes / absolute + systemic / pathology microscopic / blood vessel / inflammation + systemic / pathology …
  NEL: 20 mg/kg/day
Rat [19]; systemic / organ weight / testes / absolute + systemic / pathology microscopic / heart / necrosis + systemic / pathology microscopic / …
  LEL: 40 mg/kg/day
